One compound from patent US8114843B2, “Photoreactive regulator of protein function and methods of use thereof” (The Regents of the University of California, priority 2005, dated 2012) can be followed below.

One data set concerns the target T1, Kv4.2 (Homo sapiens, UniProt Q9NZV8).
T1 construct: expressed in transfected cells; host or cells: HEK cells
T1 sequence (Q9NZV8 1-630): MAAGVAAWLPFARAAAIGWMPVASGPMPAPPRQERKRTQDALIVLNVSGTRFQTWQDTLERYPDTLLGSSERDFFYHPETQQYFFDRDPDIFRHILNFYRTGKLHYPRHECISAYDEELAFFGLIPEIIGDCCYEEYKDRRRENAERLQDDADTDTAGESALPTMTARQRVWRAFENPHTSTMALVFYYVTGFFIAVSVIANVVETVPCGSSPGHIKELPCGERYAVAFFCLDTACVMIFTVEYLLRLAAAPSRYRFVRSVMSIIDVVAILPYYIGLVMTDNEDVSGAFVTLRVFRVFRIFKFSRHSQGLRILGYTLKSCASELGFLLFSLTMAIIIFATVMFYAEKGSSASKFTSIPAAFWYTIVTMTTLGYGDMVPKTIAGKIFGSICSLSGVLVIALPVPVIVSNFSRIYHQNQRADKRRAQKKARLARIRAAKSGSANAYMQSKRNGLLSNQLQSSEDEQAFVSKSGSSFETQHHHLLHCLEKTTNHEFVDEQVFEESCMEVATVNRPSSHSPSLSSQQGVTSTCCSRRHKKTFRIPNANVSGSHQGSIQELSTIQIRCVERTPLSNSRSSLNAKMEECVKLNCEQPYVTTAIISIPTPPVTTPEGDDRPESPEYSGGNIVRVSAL
Kind of data set: PAL photoswitching, whole-cell patch clamp in HEK cells. The settings on record: n=6. It counts as cell-based. The method, then:
(§1) Cell culture and transfection. HEK293 cells were grown in DMEM containing 5% fetal bovine serum, at 37° C., 7% CO2. For electrophysiology, cells were plated at 12×10^5 cells/cm^2 on poly-L-lysine coated coverslips and transfected using the calcium phosphate method. Recordings were performed 24-36 hours after transfection.
(§2) PAL attachment. HEK293 and hippocampal cells were rinsed in extracellular solution containing in mM: 138 NaCl, 1.5 KCl, 1.2 MgCl2, 2.5 CaCl2, 5 HEPES, 10 glucose and incubated at 37° C. in the dark with 200-250 μM PAL for 15 minutes. For slices, AAQ was diluted to 200 μM in aCSF and treatment was performed in the dark at room temperature for 10 minutes.
(§3) Electrophysiological recording. Recordings from HEK293 and hippocampal neurons were made in the whole-cell patch clamp configuration using a PC-501A amplifier (Warner Instruments). Pulse protocols and measurements were carried out with pCLAMP and a Digidata 1322 interface (Axon Instruments). For voltage-clamp experiment, cells were held at −70 mV. Data was recorded at 20 kHz and filtered at 2 kHz. Recording pipettes with 2.5-4 MΩ resistance were filled with intracellular solution containing in mM: 10 NaCl, 135 K-gluconate, 10 HEPES, 2 MgCl2, 2 MgATP, 1 EGTA, pH 7.4.
(§4) Illumination was provided using a xenon lamp (Sutter Instruments) with narrow band pass filters (380 BP10 for UV and 500 BP5 for visible light respectively). Excitation filters were changed using a lambda 10-2 filter changer (Sutter Instruments) controlled via pCLAMP software.
(§5) Percent photoswitching was defined as the difference between current in UV and visible light divided by current in UV. All data shown in bar graphs are averages±standard error of the mean.
A general note: In patch-clamp work, channel activity is measured electrically.

Another data set addresses T2, BKα channels (Homo sapiens, UniProt Q12791).
T2 construct: expressed in transfected cells; host or cells: HEK cells
The description is as above. The settings on record: n=6. It counts as cell-based. The method, then: as §1, §2, §3, §4, §5

Another data set deals with basket cells. The experiment in a line: Loose-patch extracellular recording in cerebellar slices. It counts as cell-based, rat. The settings on record: 500 nm light; with AMPA, NMDA and GABAA receptor antagonists; n=6. On the procedure: Brain Slice Preparation. Parasagittal cerebellar slices were prepared using standard techniques approved by the UCLA Animal Care Committee. The cerebellum was removed from the cranium of a 14-20 day old Sprague-Dawley rat, mounted on an agar support and sectioned parasagitally using a vibrotome (Leica VT-1000) while submerged in cold (<4° C.) artificial cerebrospinal fluid (aCSF) containing in mM: 119 NaCl, 26 NaHCO3, 11 glucose, 2.5 KCl, 2.5 CaCl2, 1.3 MgCl2, and 1 NaH2PO4 and saturated with 95% O2 and 5% CO2 Following sectioning, the […] slices were stored in 35° C. aCSF for 30 minutes and brought to room temperature for subsequent electrophysiological experiments.
as §2
For cerebellar slices, neuronal cell bodies were visualized using an upright microscope with a 40× water immersion lens and equipped with an infrared-DIC enhancement. Loose-patch extracellular recordings were performed using an Axopatch 200B amplifier (Axon Instruments). Electrophysiological recordings were filtered at 1 KHz and digitized at 2-4 KHz. […]

Data set [1] has as its system cultured hippocampal neurons. Kind of data set: Live/Dead assay after PAL treatment. The format is cell-based. The following applies: 200 μM. An excerpt: Live/Dead assay. After PAL treatment, hippocampal neurons were processed for the live dead assay (Molecular Probes) according to the manufacturer's instructions. Cells were counted in 4-8 fields for each treatment condition.

T2 sequence (Q12791 whole entry): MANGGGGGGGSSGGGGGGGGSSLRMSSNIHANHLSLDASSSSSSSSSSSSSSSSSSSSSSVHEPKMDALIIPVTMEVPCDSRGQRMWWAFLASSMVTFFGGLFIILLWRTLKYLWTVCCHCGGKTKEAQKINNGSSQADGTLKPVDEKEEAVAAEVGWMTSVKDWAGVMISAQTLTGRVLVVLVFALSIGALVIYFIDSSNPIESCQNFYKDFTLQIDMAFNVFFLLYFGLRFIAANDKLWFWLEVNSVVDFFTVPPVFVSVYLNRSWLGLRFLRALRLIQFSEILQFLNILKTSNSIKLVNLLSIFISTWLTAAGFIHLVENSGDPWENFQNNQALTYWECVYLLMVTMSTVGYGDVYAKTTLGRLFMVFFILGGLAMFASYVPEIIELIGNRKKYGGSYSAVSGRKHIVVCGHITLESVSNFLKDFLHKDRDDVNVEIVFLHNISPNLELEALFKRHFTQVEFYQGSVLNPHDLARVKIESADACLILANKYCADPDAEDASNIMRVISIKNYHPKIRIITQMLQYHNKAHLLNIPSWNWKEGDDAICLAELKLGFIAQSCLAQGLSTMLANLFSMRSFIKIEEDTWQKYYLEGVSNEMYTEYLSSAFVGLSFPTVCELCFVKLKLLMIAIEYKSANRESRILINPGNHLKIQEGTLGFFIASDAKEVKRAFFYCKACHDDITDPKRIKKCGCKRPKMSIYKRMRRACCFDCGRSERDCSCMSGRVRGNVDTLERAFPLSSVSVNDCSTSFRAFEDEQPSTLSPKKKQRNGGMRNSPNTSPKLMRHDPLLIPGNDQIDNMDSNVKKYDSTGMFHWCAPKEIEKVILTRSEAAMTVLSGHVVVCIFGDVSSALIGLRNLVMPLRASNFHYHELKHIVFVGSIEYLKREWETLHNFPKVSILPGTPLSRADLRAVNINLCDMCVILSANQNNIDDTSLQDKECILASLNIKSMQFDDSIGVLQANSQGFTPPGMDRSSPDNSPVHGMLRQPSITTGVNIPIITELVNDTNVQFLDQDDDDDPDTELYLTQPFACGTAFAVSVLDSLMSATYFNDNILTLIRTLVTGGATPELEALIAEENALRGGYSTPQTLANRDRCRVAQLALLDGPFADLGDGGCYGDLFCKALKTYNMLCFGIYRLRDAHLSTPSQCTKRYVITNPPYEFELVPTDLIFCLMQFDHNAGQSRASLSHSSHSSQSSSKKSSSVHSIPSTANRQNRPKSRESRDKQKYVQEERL

Consider `C=CC(=O)Nc1ccc(/N=N/c2ccc(NC(=O)C[N+](CC)(CC)CC)cc2)cc1` [AAQ], for which, at Kv4.2, the “current turned on and off by light” value is around 80%. Besides, the “current regulated by light” value at BKα channels was around 45%. Further, in the data set with basket cells, the “enhancement of firing frequency” value is on record as 324±160%. Also, the death of neurons in data set [1] (15 min) is listed as around 10%. Also, the loss of neurons in data set [1] (60 min) is given as around 15%.
